Measured values taken from the NIST ThermoML archive (doi:10.1016/j.jct.2018.08.037).
Values joined by “and” are separate entries in the source; they are usually repeats but may differ in a detail not shown here. Equal values may be shown once. ± gives the expanded uncertainty stated by the source.

Assay: mn = molality of the nth substance listed, in mol/kg
Settings: 298.15 K, 100 kPa, Liquid, Buoyancy - hydrostatic balance

mass density (m1 = 1) | mass density (m1 = 2) [kg/m3] | SMILES | mass density (m1 = 1.05) | mass density (m1 = 1.62) [kg/m3] | mass density (m1 = 2.21) [kg/m3] | mass density (m1 = 2.22) [kg/m3] | mass density (m1 = 2.84) [kg/m3] | mass density (m1 = 2.86) [kg/m3] | mass density (m1 = 3.51) [kg/m3] | mass density (m1 = 6.68) [kg/m3]
 |  | [Na+].[O-][Cl+3]([O-])([O-])[O-] [sodium perchlorate] + O | 1076 ± 14 kg/m3 and 1072 ± 15 kg/m3 | 1110 ± 14 | 1148 ± 14 | 1145 ± 14 | 1185 ± 16 | 1180 ± 16 | 1223 ± 14 | 1360 ± 14
1043 ± 14 kg/m3 and 1041 ± 14 kg/m3 | 1081 ± 14 | [Na+].[OH-] [sodium hydroxide] + O |  |  |  |  |  |  |  | 
